The supplement of paper PMC10307832

Key:
Experiment in all cases: relative viability (nuclei count vs DMSO), 5 days (fraction); higher = more cells survive
EBC-1 = test system: EBC-1
In short: (§1)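 For relative viability, nuclei counts in treated wells were divided by those in vehicle wells. Lung cancer cell lines had been pin-tool dosed in 1536-well plates the day after seeding and cultured for 5 days, then fixed and stained in one step (final 0.05% Triton X-100, 1% formaldehyde, 1 ug/ml Hoechst) and imaged at 4×. Doses were one drug alone or a fixed anchor-drug dose plus five library-drug doses (not always all listed) in √10 steps, and values are duplicate-plate medians.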

NCI-H1299 = test system: NCI-H1299
In short: as §1

NCI-H2023 = test system: NCI-H2023
In short: as §1

A549 = test system: A549
In short: as §1

NCI-H520 = test system: NCI-H520
In short: as §1

NCI-H1703 = test system: NCI-H1703
In short: as §1

NCI-H727 = test system: NCI-H727
In short: as §1

Calu-6 = test system: Calu-6
In short: as §1

IA-LM = test system: IA-LM
In short: as §1

NCI-H2170 = test system: NCI-H2170
In short: as §1

Compound `CN1CCN(CCOc2cc(OC3CCOCC3)c3c(Nc4c(Cl)ccc5c4OCO5)ncnc3c2)CC1` [Saracatinib] + C[C@]1(O)C[C@@H](c2nc(-c3ccc4ccc(-c5ccccc5)nc4c3)c3c(N)nccn32)C1 [Linsitinib] (partner 1 µM) has a relative viability (EBC-1; first compound 0.02 µM) of 0.94, a relative viability (EBC-1; first compound 0.2 µM) of 0.771 and a relative viability (EBC-1; first compound 0.6325 µM) of 1.07. The relative viability (EBC-1; first compound 2 µM) was 0.982, the relative viability (NCI-H1299; first compound 0.02 µM) was 0.992 and the relative viability (NCI-H1299; first compound 0.2 µM) was 0.791. It also gave a relative viability (NCI-H1299; first compound 0.6325 µM) of 0.979, a relative viability (NCI-H1299; first compound 2 µM) of 0.655 and a relative viability (NCI-H2023; first compound 0.02 µM) of 0.771. The relative viability (NCI-H2023; first compound 0.2 µM) was 0.588, the relative viability (NCI-H2023; first compound 0.6325 µM) was 0.542 and the relative viability (NCI-H2023; first compound 2 µM) was 0.366. For the same compound, the relative viability (A549; first compound 0.02 µM) was 0.564, the relative viability (A549; first compound 0.2 µM) was 0.566 and the relative viability (A549; first compound 0.6325 µM) was 0.638. The relative viability (A549; first compound 2 µM) was 0.357, the relative viability (NCI-H520; first compound 0.02 µM) was 0.911 and the relative viability (NCI-H520; first compound 0.2 µM) was 0.786. The relative viability (NCI-H520; first compound 0.6325 µM) was 0.825, the relative viability (NCI-H520; first compound 2 µM) was 0.504 and the relative viability (NCI-H1703; first compound 0.02 µM) was 1.02. The relative viability (NCI-H1703; first compound 0.2 µM) was 0.738, the relative viability (NCI-H1703; first compound 0.6325 µM) was 0.513 and the relative viability (NCI-H1703; first compound 2 µM) was 0.35. It also gave a relative viability (NCI-H727; first compound 0.02 µM) of 0.284, a relative viability (NCI-H727; first compound 0.2 µM) of 0.159 and a relative viability (NCI-H727; first compound 0.6325 µM) of 0.26. It also gave a relative viability (NCI-H727; first compound 2 µM) of 0.176, a relative viability (Calu-6; first compound 0.02 µM) of 0.95 and a relative viability (Calu-6; first compound 0.2 µM) of 0.824. The relative viability (Calu-6; first compound 0.6325 µM) was 0.906, the relative viability (Calu-6; first compound 2 µM) was 0.68 and the relative viability (IA-LM; first compound 0.02 µM) was 0.682. The relative viability (IA-LM; first compound 0.2 µM) was 0.838, the relative viability (IA-LM; first compound 0.6325 µM) was 1.43 and the relative viability (IA-LM; first compound 2 µM) was 0.815.

Work on `CN1CCN(CCOc2cc(OC3CCOCC3)c3c(Nc4c(Cl)ccc5c4OCO5)ncnc3c2)CC1` [Saracatinib] + CC1(C)CCC(c2ccc(Cl)cc2)=C(CN2CCN(c3ccc(C(=O)NS(=O)(=O)c4ccc(N[C@H](CCN5CCOCC5)CSc5ccccc5)c(S(=O)(=O)C(F)(F)F)c4)cc3)CC2)C1 [Navitoclax] (partner 0.5 µM) yielded a relative viability (EBC-1; first compound 0.02 µM) of 0.542, a relative viability (EBC-1; first compound 0.2 µM) of 0.408 and a relative viability (EBC-1; first compound 0.6325 µM) of 0.393. It also gave a relative viability (EBC-1; first compound 2 µM) of 0.43, a relative viability (NCI-H1299; first compound 0.02 µM) of 1.01 and a relative viability (NCI-H1299; first compound 0.2 µM) of 1.06. For the same compound, the relative viability (NCI-H1299; first compound 0.6325 µM) was 1.04, the relative viability (NCI-H1299; first compound 2 µM) was 1.04 and the relative viability (NCI-H2023; first compound 0.02 µM) was 1.04. The relative viability (NCI-H2023; first compound 0.2 µM) was 0.808, the relative viability (NCI-H2023; first compound 0.6325 µM) was 1.02 and the relative viability (NCI-H2023; first compound 2 µM) was 0.987. For the same compound, the relative viability (A549; first compound 0.02 µM) was 1.42, the relative viability (A549; first compound 0.2 µM) was 0.903 and the relative viability (A549; first compound 0.6325 µM) was 1.39. The relative viability (A549; first compound 2 µM) was 1.38, the relative viability (NCI-H520; first compound 0.02 µM) was 1.1 and the relative viability (NCI-H520; first compound 0.2 µM) was 0.993. For the same compound, the relative viability (NCI-H520; first compound 0.6325 µM) was 0.753, the relative viability (NCI-H520; first compound 2 µM) was 0.583 and the relative viability (NCI-H2170; first compound 0.02 µM) was 0.57. For the same compound, the relative viability (NCI-H2170; first compound 0.2 µM) was 0.564, the relative viability (NCI-H2170; first compound 0.6325 µM) was 0.609 and the relative viability (NCI-H2170; first compound 2 µM) was 0.39. For the same compound, the relative viability (NCI-H1703; first compound 0.02 µM) was 1.09, the relative viability (NCI-H1703; first compound 0.2 µM) was 0.904 and the relative viability (NCI-H1703; first compound 0.6325 µM) was 0.43. It also gave a relative viability (NCI-H1703; first compound 2 µM) of 0.269, a relative viability (NCI-H727; first compound 0.02 µM) of 0.499 and a relative viability (NCI-H727; first compound 0.2 µM) of 0.285. For the same compound, the relative viability (NCI-H727; first compound 0.6325 µM) was 0.48, the relative viability (NCI-H727; first compound 2 µM) was 0.225 and the relative viability (Calu-6; first compound 0.02 µM) was 0.914. It also gave a relative viability (Calu-6; first compound 0.2 µM) of 0.746, a relative viability (Calu-6; first compound 0.6325 µM) of 0.731 and a relative viability (Calu-6; first compound 2 µM) of 0.562. It also gave a relative viability (IA-LM; first compound 0.02 µM) of 0.865, a relative viability (IA-LM; first compound 0.6325 µM) of 1.45 and a relative viability (IA-LM; first compound 2 µM) of 1.

`Cc1cn(-c2cc(NC(=O)c3ccc(C)c(Nc4nccc(-c5cccnc5)n4)c3)cc(C(F)(F)F)c2)cn1` [Nilotinib] + CC(C)C[C@H](NC(=O)[C@H](Cc1ccccc1)NC(=O)c1cnccn1)B(O)O [Bortezomib] (partner 0.002 µM) was tested, and the relative viability (EBC-1; first compound 0.001 µM) was 0.488, the relative viability (EBC-1; first compound 0.003162 µM) was 0.55 and the relative viability (EBC-1; first compound 0.01 µM) was 0.417. For the same compound, the relative viability (EBC-1; first compound 0.03162 µM) was 0.437, the relative viability (EBC-1; first compound 0.1 µM) was 0.241 and the relative viability (NCI-H1299; first compound 0.003162 µM) was 1.07. It also gave a relative viability (NCI-H1299; first compound 0.01 µM) of 1.05, a relative viability (NCI-H1299; first compound 0.03162 µM) of 1.01 and a relative viability (NCI-H1299; first compound 0.1 µM) of 0.933. For the same compound, the relative viability (NCI-H2023; first compound 0.001 µM) was 1, the relative viability (NCI-H2023; first compound 0.003162 µM) was 0.691 and the relative viability (NCI-H2023; first compound 0.01 µM) was 1.16. The relative viability (NCI-H2023; first compound 0.03162 µM) was 0.925, the relative viability (NCI-H2023; first compound 0.1 µM) was 0.206 and the relative viability (NCI-H520; first compound 0.001 µM) was 0.591. The relative viability (NCI-H520; first compound 0.01 µM) was 0.776, the relative viability (NCI-H520; first compound 0.03162 µM) was 0.526 and the relative viability (NCI-H520; first compound 0.1 µM) was 0.34. For the same compound, the relative viability (NCI-H1703; first compound 0.001 µM) was 0.232, the relative viability (NCI-H1703; first compound 0.003162 µM) was 0.208 and the relative viability (NCI-H1703; first compound 0.01 µM) was 0.148. For the same compound, the relative viability (NCI-H1703; first compound 0.03162 µM) was 0.141, the relative viability (NCI-H1703; first compound 0.1 µM) was 0.125 and the relative viability (NCI-H727; first compound 0.001 µM) was 0.848. It also gave a relative viability (NCI-H727; first compound 0.01 µM) of 0.976, a relative viability (NCI-H727; first compound 0.03162 µM) of 0.678 and a relative viability (NCI-H727; first compound 0.1 µM) of 0.484. The relative viability (Calu-6; first compound 0.001 µM) was 0.934, the relative viability (Calu-6; first compound 0.003162 µM) was 1.02 and the relative viability (Calu-6; first compound 0.01 µM) was 0.929. For the same compound, the relative viability (Calu-6; first compound 0.03162 µM) was 1.02, the relative viability (Calu-6; first compound 0.1 µM) was 1.01 and the relative viability (IA-LM; first compound 0.001 µM) was 0.616. For the same compound, the relative viability (IA-LM; first compound 0.003162 µM) was 0.698, the relative viability (IA-LM; first compound 0.01 µM) was 0.685 and the relative viability (IA-LM; first compound 0.03162 µM) was 0.808. The relative viability (IA-LM; first compound 0.1 µM) was 0.714.
